Tested on: a variety of test species
Test: Post-emergence herbicidal activity
Assay type: in vivo
Design: key to ABUTH (Abutilon theophrasti) damage score / AMARE (Amaranthus retroflexus) damage score / ALOMY (Alopecurus myosuroides) damage score / ECHCG (Echinochloa crus-galli) damage score / ZEAMX (Zea mays) damage score / SOLNI (Solanum nigrum) damage score: 0 = no damage to plant, 5 = total damage to plant
Conditions: evaluated after 13 days
Method: Seeds of a variety of test species were sown in standard soil in pots. After 8 days cultivation (post-emergence) under controlled conditions in a glasshouse (at 24/16° C., day/night; 14 hours light; 65% humidity), the plants were sprayed with an aqueous spray solution derived from the formulation of the technical active ingredient in acetone/water (50:50) solution containing 0.5% Tween 20 (polyoxyethelyene sorbitan monolaurate, CAS RN 9005-64-5). The test plants were then grown in a glasshouse under controlled conditions (at 24/16° C., day/night; 14 hours light; 65% humidity) and watered twice daily. After 13 days, the test was evaluated (5=total damage to plant; 0=no damage to plant, NC=not captured).

SMILES	ABUTH (Abutilon theophrasti) damage score (rate 1000 g/ha)	ALOMY (Alopecurus myosuroides) damage score (rate 1000 g/ha)	AMARE (Amaranthus retroflexus) damage score (rate 1000 g/ha)	ECHCG (Echinochloa crus-galli) damage score (rate 1000 g/ha)	SETFA (Setaria faberi) damage score (rate 1000 g/ha)	ZEAMX (Zea mays) damage score (rate 1000 g/ha)	ABUTH (Abutilon theophrasti) damage score (rate 250 g/ha)	ALOMY (Alopecurus myosuroides) damage score (rate 250 g/ha)	AMARE (Amaranthus retroflexus) damage score (rate 250 g/ha)	ECHCG (Echinochloa crus-galli) damage score (rate 250 g/ha)	SETFA (Setaria faberi) damage score (rate 250 g/ha)	ZEAMX (Zea mays) damage score (rate 250 g/ha)	SOLNI (Solanum nigrum) damage score (rate 1000 g/ha)
COC1=C(C)C(=O)N(c2cc(C)c(NC(=O)C(C)(C)C)cn2)C1O (stereo not drawn) [AD90]	5	5	5	5	5	2	–	–	–	–	–	–	–
COC1=C(C)C(=O)N(c2cc(C(F)(F)F)c(I)cn2)C1O (stereo not drawn) [AD51]	5	4	5	5	5	1	–	–	–	–	–	–	–
CCc1cc(N2C(=O)C(C)=C(OC)C2O)ncc1-c1ccc(C)c([N+](=O)[O-])c1 (stereo not drawn) [AD103]	4	3	5	4	4	1	–	–	–	–	–	–	–
COC1=C(C)C(=O)N(c2cc(C(C)(C)C)c(OC)nn2)C1O (stereo not drawn) [BD10]	5	5	5	5	5	4	–	–	–	–	–	–	–
COC1=C(C)C(=O)N(c2cc(C)c(-c3cc(F)c(F)c(F)c3)cn2)C1O (stereo not drawn) [AD114]	4	2	5	1	3	0	–	–	–	–	–	–	–
CCc1cc(N2C(=O)C(C)=C(OC)C2O)ncc1-c1ccoc1 (stereo not drawn) [AD102]	4	3	5	3	4	1	–	–	–	–	–	–	–
COC1=C(C)C(=O)N(c2cc(C)c(-c3cccc([N+](=O)[O-])c3)cn2)C1O (stereo not drawn) [AD118]	5	2	5	2	4	0	–	–	–	–	–	–	–
CCOC1=C(C)C(=O)N(c2cc(C(F)(F)F)ccn2)C1O (stereo not drawn) [AD45, 3-ethoxy-2-hydroxy-4-methyl-1-[4-(trifluoromethyl)-2-pyridyl]-2H-pyrrol-5-one]	5	4	5	5	3	1	–	–	–	–	–	–	–
COC1=C(C)C(=O)N(c2cc(Cl)c(Br)cn2)C1O (stereo not drawn) [AD69]	0	2	4	3	5	1	–	–	–	–	–	–	–
COC1=C(C)C(=O)N(c2cc(C(F)(F)F)c(C(C)=O)cn2)C1O (stereo not drawn) [AD2, 1-[5-acetyl-4-(trifluoromethyl)-2-pyridyl]-2-hydroxy-3-methoxy-4-methyl-2H-pyrrol-5-one]	5	5	5	5	5	2	–	–	–	–	–	–	–
COC1=C(Cl)C(=O)N(c2cc(C(C)(C)C)ncn2)C1O (racemic) [CF1]	4	1	2	4	4	1	–	–	–	–	–	–	–
CCc1cc(N2C(=O)C(C)=C(OC)C2O)ncc1-c1ccccc1[N+](=O)[O-] (stereo not drawn) [AD104]	5	2	5	2	4	0	–	–	–	–	–	–	–
COC1=C(C)C(=O)N(c2cc(C(F)(F)F)c(C#N)cn2)C1O (stereo not drawn) [AD26, 6-(2-hydroxy-3-methoxy-4-methyl-5-oxo-2H-pyrrol-1-yl)-4-(trifluoromethyl)pyridine-3-carbonitrile]	5	4	5	5	4	2	–	–	–	–	–	–	–
CC1=C(Cl)C(O)N(c2cc(C(F)(F)F)c(Br)cn2)C1=O (stereo not drawn) [AA25, 1-[5-bromo-4-(trifluoromethyl)-2-pyridyl]-3-chloro-2-hydroxy-4-methyl-2H-pyrrol-5-one]	1	2	5	3	3	1	–	–	–	–	–	–	–
CC1=C(Cl)C(O)N(c2cc(Cl)c(Cl)cn2)C1=O (stereo not drawn) [AA16]	0	1	0	1	3	1	–	–	–	–	–	–	–
COC1=C(C)C(=O)N(c2cc(C(F)(F)F)c(OCCc3ccsc3)cn2)C1O (stereo not drawn) [AD87]	–	–	–	–	–	–	4	3	5	2	3	1	–
CC1=C(Cl)C(O)N(c2ccc(OC(F)(F)F)cn2)C1=O (stereo not drawn) [AA38]	1	1	4	1	1	0	–	–	–	–	–	–	–
CC1=C(Cl)C(O)N(c2cc(C)c(-c3ccsc3)cn2)C1=O (stereo not drawn) [AA48]	4	1	5	3	4	0	–	–	–	–	–	–	–
COC1=C(Br)C(O)N(c2cc(C(F)(F)F)ccn2)C1=O (stereo not drawn) [AE1, 3-bromo-2-hydroxy-4-methoxy-1-[4-(trifluoromethyl)-2-pyridyl]-2H-pyrrol-5-one]	4	3	5	5	3	0	–	–	–	–	–	–	–
CC1=C(Cl)C(O)N(c2ccc(C)cn2)C1=O (stereo not drawn) [AA36]	–	1	4	2	1	0	–	–	–	–	–	–	3
CCCCOc1cnc(N2C(=O)C(C)=C(OC)C2O)cc1C(F)(F)F (stereo not drawn) [AD78]	4	3	5	5	5	2	–	–	–	–	–	–	–
COC1=C(C)C(=O)N(c2cc(C)c(-c3ccc(OC)c(OC)c3)cn2)C1O (stereo not drawn) [AD117]	5	2	5	1	4	0	–	–	–	–	–	–	–
COC1=C(C)C(=O)N(c2cc(C(C)C)c(C(=O)NC(C)(C)C)cn2)C1O (stereo not drawn) [AD89]	5	5	5	5	5	3	–	–	–	–	–	–	–
COC1=C(C)C(=O)N(c2cc(C(F)(F)F)c(OC)cn2)C1O (stereo not drawn) [AD10, 2-hydroxy-3-methoxy-1-[5-methoxy-4-(trifluoromethyl)-2-pyridyl]-4-methyl-2H-pyrrol-5-one]	5	5	5	5	5	2	–	–	–	–	–	–	–
COC1=C(C)C(=O)N(c2cc(C(C)(C)F)c(Cl)nn2)C1O (stereo not drawn) [BD8]	5	4	5	5	5	2	–	–	–	–	–	–	–
CCc1cc(N2C(=O)C(C)=C(OC)C2O)ncc1-c1ccccc1C (stereo not drawn) [AD107]	5	2	5	2	3	1	–	–	–	–	–	–	–
COC1=C(C)C(=O)N(c2cc(C(F)(F)F)ccn2)C1O (stereo not drawn) [AD34]	5	5	5	5	5	0	–	–	–	–	–	–	–

Reference: US9611248B2, “Chemical compounds” (Syngenta Participations AG, priority 2013, dated 2017)
